Data published in PubChem BioAssay (NCI).
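A five-concentration, 48-hour dose response in 96-well plates underlies each endpoint, interpolated linearly between surrounding concentrations. TGI: concentration producing complete growth inhibition.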

Experiments:
Assay in all cases: NCI anticancer screen, dose series, 48 h
[1] = tested on: 786-0 renal
[2] = tested on: A498 renal
[3] = tested on: A549 NSCLC
[4] = tested on: ACHN renal
[5] = tested on: CAKI-1 renal
[6] = tested on: CCRF-CEM leukemia
[7] = tested on: COLO 205 colon
[8] = tested on: DU-145 prostate
[9] = tested on: EKVX NSCLC
[10] = tested on: HCC-2998 colon
[11] = tested on: HCT-116 colon
[12] = tested on: HCT-15 colon
[13] = tested on: HOP-62 NSCLC
[14] = tested on: HOP-92 NSCLC
[15] = tested on: HS 578T breast
[16] = tested on: HT29 colon
[17] = tested on: IGROV1 ovarian
[18] = tested on: K-562 leukemia
[19] = tested on: KM12 colon
[20] = tested on: LOX IMVI melanoma
[21] = tested on: M14 melanoma
[22] = tested on: MALME-3M melanoma
[23] = tested on: MCF7 breast
[24] = tested on: MDA-MB-231 breast
[25] = tested on: MDA-MB-435
[26] = tested on: MDA-N
[27] = tested on: MOLT-4 leukemia
[28] = tested on: NCI-H226 lung
[29] = tested on: NCI-H23 lung
[30] = tested on: NCI-H460 lung
[31] = tested on: NCI-H522 lung
[32] = tested on: NCI/ADR-RES ovarian
[33] = tested on: OVCAR-3 ovarian
[34] = tested on: OVCAR-4 ovarian
[35] = tested on: OVCAR-5 ovarian
[36] = tested on: OVCAR-8 ovarian
[37] = tested on: PC-3 prostate
[38] = tested on: RPMI-8226 leukemia
[39] = tested on: RXF 393 renal
[40] = tested on: SF-268 CNS
[41] = tested on: SF-295 CNS
[42] = tested on: SF-539 CNS
[43] = tested on: SK-MEL-2 melanoma
[44] = tested on: SK-MEL-28 melanoma
[45] = tested on: SK-MEL-5 melanoma
[46] = tested on: SK-OV-3 ovarian
[47] = tested on: SN12C renal
[48] = tested on: SNB-19 CNS
[49] = tested on: SNB-75 CNS
[50] = tested on: SR leukemia
[51] = tested on: SW-620 colon
[52] = tested on: T-47D breast
[53] = tested on: TK-10 renal
[54] = tested on: U251 CNS
[55] = tested on: UACC-257 melanoma
[56] = tested on: UACC-62 melanoma
[57] = tested on: UO-31 renal

Structure (SMILES): Nc1ccc2c(=O)cc(-c3ccc(Br)s3)[nH]c2n1
- TGI [1]: > 100 µM
- TGI [2]: > 100 µM
- TGI [3]: > 44.8 µM
- TGI [4]: > 100 µM
- TGI [5]: > 100 µM
- TGI [6]: > 100 µM
- TGI [7]: > 22.1 µM
- TGI [8]: > 100 µM
- TGI [9]: > 100 µM
- TGI [10]: 29.7 µM
- TGI [11]: > 100 µM
- TGI [12]: > 100 µM
- TGI [13]: > 100 µM
- TGI [14]: > 100 µM
- TGI [15]: > 100 µM
- TGI [16]: > 44.2 µM
- TGI [17]: > 100 µM
- TGI [18]: > 100 µM
- TGI [19]: > 100 µM
- TGI [20]: > 100 µM
- TGI [21]: 45.3 µM
- TGI [22]: > 100 µM
- TGI [23]: > 100 µM
- TGI [24]: > 94.8 µM
- TGI [25]: 1.39 µM
- TGI [26]: 1.29 µM
- TGI [27]: 13.2 µM
- TGI [28]: 9.11 µM
- TGI [29]: > 23.4 µM
- TGI [30]: > 100 µM
- TGI [31]: > 23.1 µM
- TGI [32]: > 26.9 µM
- TGI [33]: > 100 µM
- TGI [34]: > 100 µM
- TGI [35]: > 100 µM
- TGI [36]: > 57.2 µM
- TGI [37]: > 100 µM
- TGI [38]: > 100 µM
- TGI [39]: > 100 µM
- TGI [40]: > 100 µM
- TGI [41]: > 31.9 µM
- TGI [42]: 6.02 µM
- TGI [43]: > 100 µM
- TGI [44]: > 100 µM
- TGI [45]: 11.3 µM
- TGI [46]: > 53.1 µM
- TGI [47]: > 100 µM
- TGI [48]: > 100 µM
- TGI [49]: > 28.6 µM
- TGI [50]: > 51.1 µM
- TGI [51]: > 100 µM
- TGI [52]: > 100 µM
- TGI [53]: > 100 µM
- TGI [54]: > 74.4 µM
- TGI [55]: > 100 µM
- TGI [56]: > 100 µM
- TGI [57]: > 23.2 µM
